Results published in publication PMC11054274, “Dual Antitubercular and Antileishmanial Profiles of Quinoxaline Di-N-Oxides Containing an Amino Acidic Side Chain” (Pharmaceuticals, 2024).
Where two headings read alike, the source gives them in different places.

Assays:
[1] = system: Leishmania donovani amastigotes; experiment: Intracellular amastigote assay in J774 macrophages, L. donovani; format: cell-based; conditions: for IC50: Table S3, intracellular amastigotes, 48 h
Procedure: (§1) We performed an intracellular amastigote assay on L. amazonensis and L. donovani according to a fluorometric method reported by us. To carry out the in vitro macrophage infections, 5 × 10^4 cells were cultured in RPMI-1640 medium and then were infected with 5 × 10^5 promastigotes. In the L. donovani assays, the plates were incubated for 48 h at 37 °C, while in the L. amazonensis assays, they were incubated at 33 °C for the first 24 h and then the temperature was increased to 37 °C for the next 24 h. After, the culture medium was removed and the cells were washed with buffered RPMI-HEPES at pH 7.4 several times in order to eliminate the non-internalized promastigotes. A total of 100 µL of fresh medium tempered at 37 °C was added to the infected cells, which then were exposed to 100 µL of the test compounds in RPMI-1640 at different concentrations (100, 50, 25, 12.5, 6.25, 3.12, 1.56 and 0.78 µg/mL in a final volume of 200 µL) for 48 h at 37 °C. The culture medium was removed by centrifugation at 3500 rpm for 5 min (Centrifuge 5403 Eppendorf) and a lysis solution (0.02% sodium dodecyl sulfate in RPMI-HEPES) was added. After 20 min, the treated cells were harvested (centrifugation at 3500 rpm for 5 min at 4 °C) and the supernatants were replaced by 200 μL of fresh Schneider’s culture medium. The plates were then incubated at 26 °C for another 3 days to allow for the transformation of viable amastigotes into promastigotes and proliferation. Afterwards, 20 μL/well of 2.5 mM resazurin was added and incubated for another 3 h. Finally, URF was measured and IC50 was estimated as described above. All tests were carried out in triplicate. Miltefosine was used as the reference drug.

[2] = system: Leishmania amazonensis amastigotes; experiment: Intracellular amastigote assay in J774 macrophages, L. amazonensis; format: cell-based; conditions: for L. amazonensis amastigote selectivity index (SI): SI = CC50 (J774 macrophages)/IC50
Procedure: as §1

[3] = system: Mycobacterium tuberculosis H37Rv; experiment: In vitro activity against Mycobacterium tuberculosis H37Rv, microdilution AlamarBlue broth assay (BacTiter-Glo alternative read-out); format: cell-based; conditions: Table S1, Mtb H37Rv; for IC50: read-out: IC50, antibacterial activity against Mtb H37Rv; for IC90: read-out: IC90, antibacterial activity against Mtb H37Rv
[4] = system: Leishmania amazonensis promastigotes; experiment: Promastigote susceptibility assay (resazurin), L. amazonensis; format: cell-based
Procedure: (§2) The following species of Leishmania were used: L. donovani (MHOM/IN/80/DD8), which was purchased (ATCC, Manassas, VA, USA), and L. amazonensis (MHOM/Br/79/Maria), which was kindly provided by Prof. Alfredo Toraño (Instituto de Salud Carlos III, Madrid, Spain). Promastigotes were cultured in Schneider’s Insect Medium supplemented with 10% heat-inactivated Fetal Bovine Serum (FBS) (SIGMA-Merck, Madrid, Spain) and 1000 U/L of penicillin plus 100 mg/L of streptomycin in 25 mL culture flasks at 26 °C.
(§3) The activity of the compounds on Leishmania promastigotes was performed according to the method previously reported by us. Briefly, promastigotes (2.5 × 10^5 parasites/well) were cultured in 96-well plastic plates. The compounds were dissolved in dimethylsulfoxide (DMSO). Serial dilutions at 1:2 of the test compounds in fresh culture medium were performed (100, 50, 25, 12.5, 6.25, 3.12, 1.56 and 0.78 µg/mL) in a final volume of 200 µL; the solutions were then added to the parasite suspension. After an incubation period of 48 h at 26 °C, a volume of 20 μL of 2.5 mM resazurin solution in PBS was added and the plates were incubated for 3 h under the same conditions. Finally, the Relative Fluorescence Unit (RFU) (535ex–590em nm wavelength) was determined in a fluorimeter (Infinite 200 Tecan i-Control). Growth inhibition (%) was calculated by 100—[(RFU treated wells—RFU signal-to-noise)/(RFU untreated—RFU signal-to-noise) × 100]. All tests were carried out in triplicate and the IC50 was calculated by probit analysis using SPSS 17.0 Statistics Software. Miltefosine (Sigma-Merck, Madrid, Spain) was used as the reference drug.

[5] = system: Leishmania donovani promastigotes; experiment: Promastigote susceptibility assay (resazurin), L. donovani; format: cell-based; conditions: for IC50: Table S2, promastigotes, 48 h
Procedure: as §2, §3

J774 murine macrophages = experiment: Cytotoxicity assay on macrophages (resazurin); format: cell-based; conditions: 24 h exposure, read-out: Toxicity against J774 macrophages CC50
Procedure: (§4) J774 murine macrophages were grown in RPMI-1640 medium (Sigma) supplemented with 10% heat-inactivated FBS (30 min at 56 °C) (SIGMA-Merck), penicillin G (100 U/mL) and streptomycin (100 µg/mL). For the experiments, cells in the pre-confluence phase were harvested with trypsin. Cell cultures were maintained at 37 °C in a humidified environment with 5% CO2.
(§5) Cell viability was evaluated using a modification with resazurin of the colorimetric method described previously. J774 macrophages were seeded (5 × 10^4 cells/well) in 96-well flat-bottom microplates with 100 µL of RPMI-1640 medium. The cells were allowed to adhere for 4 h at 37 °C in 5% CO2, then different concentrations of the test compounds in 100 µL of the medium were added and exposed for 24 h. Growth controls were also included. To evaluate cell viability, 20 µL of a 2.5 mM resazurin solution was added and the plates were returned to the incubator for another 3 h. The reduction in resazurin was determined by measuring the fluorescence intensity (excitation wavelength, 535 nm; emission wavelength, 590 nm). Each concentration was assayed three times. The medium and controls were used in each test as blanks. The cytotoxic effect of the compounds was defined as the 50% reduction in cell viability of treated culture cells with respect to the untreated culture (CC50).

[6] = Cytotoxicity assay on macrophages (resazurin); format: cell-based, murine; conditions: mouse, J774 macrophages, 24 h exposure, read-out: Toxicity against J774 macrophages CC50
Procedure: as §4, §5

[7] = Table S3, intracellular amastigotes, 48 h, read-out: L. amazonensis IC50 (amastigote)
[8] = Table S2, promastigotes, 48 h, read-out: L. amazonensis IC50 (promastigote)
[9] = read-out: IC50 against L. amazonensis amastigotes
[10] = SI = CC50 (J774 macrophages)/IC50

Molecule | IC50 [1] | IC50 [2, 7] | IC50 [3] | IC90 [3] | IC50 [4, 8] | IC50 [5] | IC50 [2, 9] | CC50 (J774 murine macrophages; Table S2) | CC50 (J774 murine macrophages; Table S3) | other results
COC(=O)CNC(=O)c1c(-c2cccc(Cl)c2)[n+]([O-])c2cc(OC)ccc2[n+]1[O-] [Compound 4g, N-(6-Methoxy-1,4-dioxide-3-(3-chlorophenyl)quinoxaline-2-carbonyl)glycine methyl ester] | 77.5 ± 6.2 µM | 23.2 ± 4.1 µM | 50 µM | 71.9 µM | 112 ± 13.7 µM | 40 ± 6.7 µM | – | – | – | –
COC(=O)CNC(=O)c1c(-c2ccccc2C)[n+]([O-])c2cc(OC)ccc2[n+]1[O-] [Compound 4k, N-(6-Methoxy-1,4-dioxide-3-(2-methylphenyl)quinoxaline-2-carbonyl)glycine methyl ester] | 72.2 ± 18.6 µM | – | 25.9 µM | 44.6 µM | 117 ± 14.3 µM | 23.9 ± 2.2 µM | 7.2 µM | 330 ± 75.5 µM | – | –
COC(=O)CNC(=O)c1c(-c2ccc(F)cc2)[n+]([O-])c2cc(C)ccc2[n+]1[O-] [Compound 4m, N-(6-Methyl-1,4-dioxide-3-(4-fluorophenyl)-quinoxaline-2-carbonyl)glycine methyl ester] | 285 ± 115 µM | – | 18.3 µM | 36.5 µM | 62.8 ± 1.6 µM | 84.8 ± 8.9 µM | 74.4 µM | 454 µM | 454 µM | –
CCCCCCCCCCCCCCCCOP(=O)([O-])OCC[N+](C)(C)C [Miltefosine, reference compound] | – | – | – | – | – | – | – | – | – | IC50 ([1]; Leishmania donovani, J774): 7.1 µM; L. donovani amastigote selectivity index (SI) [1, 10]: 19.1; IC50 ([2]; Leishmania amazonensis, J774, Table S3, intracellular amastigotes, 48 h, read-out: L. amazonensis IC50 (amastigote)): 47.6 ± 7.4 µM; IC50 ([2]; Leishmania amazonensis, J774, read-out: IC50 against L. amazonensis amastigotes): 136 µM; L. amazonensis amastigote selectivity index (SI) [2]: 2.9; L. amazonensis amastigote selectivity index (SI) ([2]; listed as miltefosine): 2.87; CC50 at 24 h ([6]; Table S2): 136 ± 10.3 µM; CC50 at 24 h ([6]; Table S3): 136 µM; IC50 ([4]; Leishmania amazonensis, read-out: IC50 against L. amazonensis (promastigote)): 47.9 µM; L. amazonensis promastigote selectivity index (SI) [4, 10]: 2.8; IC50 ([5]; Leishmania donovani): 0.2 ± 0.02 µM; L. donovani promastigote selectivity index (SI) [5, 10]: 680.5
N-(1,4-Dioxide-3-((4-fluorophenyl)quinoxaline-2-carbonyl)glycine methyl ester [Compound 4d] | 234 ± 5.9 µM | – | 28.6 µM | 47.7 µM | 125 ± 1.43 µM | 165 ± 10.2 µM | 9.8 µM | 539 µM | 539 µM | –
N-(6-Methoxy-1,4-dioxide-3-(4-florophenyl)quinoxaline-2-carbonyl)glycine methyl ester [Compound 4i] | 71 ± 11 µM | 12.9 ± 1.7 µM | 47.2 µM | 66.5 µM | 117 ± 8 µM | 46.9 ± 14.2 µM | – | 379 ± 49.9 µM | – | –
N-(6-Methoxy-1,4-dioxide-3-(4-trifloromethylphenyl)quinoxaline-2-carbonyl)glycine methyl ester [Compound 4h] | 39.5 ± 7.5 µM | 20.9 ± 4 µM | 8.46 µM | 12.4 µM | 122 ± 9.9 µM | 25.3 ± 1.55 µM | – | 554 µM | 554 µM | –
